# Structures can show the parent of a compound that is named as a salt.
# System: HIV-1 single-round infectious reporter virus
# Test: Single-round infectious HIV-1 luciferase reporter virus infection of HeLa CD4 cells (antiviral EC50)
# Assay type: cell-based
# Settings: Human immunodeficiency virus 1, HeLa, read-out: EC50 Group from Table 3
# Method: • Virus production—Human embryonic Kidney cell line, 293T, was propagated in Dulbecco's Modified Eagle Medium (Invitrogen, Carlsbad, Calif.) containing 10% fetal Bovine serum (FBS, Sigma, St. Louis, Mo.). • Virus infection—Human epithelial cell line, HeLa, expressing the HIV-1 receptor CD4 was propagated in Dulbecco's Modified Eagle Medium (Invitrogen, Carlsbad, Calif.) containing 10% fetal Bovine serum (FBS, Sigma, St. Louis, Mo.) and supplemented with 0.2 mg/mL Geneticin (Invitrogen, Carlsbad, Calif.). Virus-Single-round infectious reporter virus was produced by co-transfecting human embryonic Kidney 293 cells with an HIV-1 envelope DNA expression vector and a proviral cDNA containing an envelope deletion mutation and the luciferase reporter gene inserted in place of HIV-1 nef sequences (Chen et al, Ref. 41). Transfections were performed using lipofectAMINE PLUS reagent as described by the manufacturer (Invitrogen, Carlsbad, Calif.). Experiment • 1. HeLa CD4 cells were plated in 96 well plates at a cell density of 1×10^4 cells per well in 100 μl Dulbecco's Modified Eagle Medium containing 10% fetal Bovine serum and incubated overnight. • 2. Compound was added in a 2 μl dimethylsulfoxide solution, so that the final assay concentration would be ≦10 μM. • 3. 100 μl of single-round infectious reporter virus in Dulbecco's Modified Eagle Medium was then added to the plated cells and compound at an approximate multiplicity of infection (MOI) of 0.01, resulting in a final volume of 200 μl per well. • 4. Virally-infected cells were incubated at 37 degrees Celsius, in a CO2 incubator, and harvested 72 h after infection. • 5. Viral infection was monitored by measuring luciferase expression from viral DNA in the infected cells using a luciferase reporter gene assay kit, as described by the manufacturer (Roche Molecular Biochemicals, Indianapolis, Ind.). Infected cell supernatants were removed and 50 μl of lysis buffer was added per well. After 15 minutes, 50 μl of freshly-reconstituted luciferase assay reagent was added per well. Luciferase activity was then quantified by measuring luminescence using a Wallac microbeta scintillation counter. • 6. The percent inhibition for each compound was calculated by quantifying the level of luciferase expression in cells infected in the presence of each compound as a percentage of that observed for cells infected in the absence of compound and subtracting such a determined value from 100. • 7. An EC50 provides a method for comparing the antiviral potency of the compounds of this disclosure. The effective concentration for fifty percent inhibition (EC50) was calculated with the Microsoft Excel Xlfit curve fitting software. For each compound, curves were generated from percent inhibition calculated at 10 different concentrations by using a four parameter logistic model (model 205). Table 3 is the key for the data in Table 4. Results
row,SMILES,EC50 [nM]
1,"COc1cnc(-c2cc(C(=O)O)[nH]n2)c2[nH]cc(C(=O)C(=O)N3CCN(c4nnnn4-c4ccccc4)CC3)c12 [B-21, 3-(4-methoxy-3-(2-oxo-2-(4-(1-phenyl-1H-tetrazol-5-yl)piperazin-1-yl)acetyl)-1H-pyrrolo[2,3-c]pyridin-7-yl)-1H-pyrazole-5-carboxylic acid]",< 500
2,"COc1cnc(-c2cc(CO)[nH]n2)c2[nH]cc(C(=O)C(=O)N3CCN(c4nnnn4-c4ccccc4)CC3)c12 [B-22, 1-(7-(5-(hydroxymethyl)-1H-pyrazol-3-yl)-4-methoxy-1H-pyrrolo[2,3-c]pyridin-3-yl)-2-(4-(1-phenyl-1H-tetrazol-5-yl)piperazin-1-yl)ethane-1,2-dione]",< 500
3,"CN(C)CCNc1ccn(-c2ncc(F)c3c(C(=O)C(=O)N4CCN(c5nnnn5-c5ccccc5)CC4)c[nH]c23)n1 [B-23, 1-(7-(3-(2-(dimethylamino)ethylamino)-1H-pyrazol-1-yl)-4-fluoro-1H-pyrrolo[2,3-c]pyridin-3-yl)-2-(4-(1-phenyl-1H-tetrazol-5-yl)piperazin-1-yl)ethane-1,2-dione TFA]",< 500
4,"COc1cnc(-c2cc(CNCCO)[nH]n2)c2[nH]cc(C(=O)C(=O)N3CCN(c4nnnn4-c4ccccc4)CC3)c12 [B-24, 1-(7-(5-((2-hydroxyethylamino)methyl)-1H-pyrazol-3-yl)-4-methoxy-1H-pyrrolo[2,3-c]pyridin-3-yl)-2-(4-(1-phenyl-1H-tetrazol-5-yl)piperazin-1-yl)ethane-1,2-dione TFA]",< 500
5,"COc1cnc(-c2cc(CNCCN(C)C)[nH]n2)c2[nH]cc(C(=O)C(=O)N3CCN(c4nnnn4-c4ccccc4)CC3)c12 [B-25, 1-(7-(5-((2-(dimethylamino)ethylamino)methyl)-1H-pyrazol-3-yl)-4-methoxy-1H-pyrrolo[2,3-c]pyridin-3-yl)-2-(4-(1-phenyl-1H-tetrazol-5-yl)piperazin-1-yl)ethane-1,2-dione TFA]",< 500
6,"COc1cnc(-c2cc(CN(C)CCN(C)C)[nH]n2)c2[nH]cc(C(=O)C(=O)N3CCN(c4nnnn4-c4ccccc4)CC3)c12 [B-26, 1-(7-(5-(((2-(dimethylamino)ethyl)(methyl)amino)methyl)-1H-pyrazol-3-yl)-4-methoxy-1H-pyrrolo[2,3-c]pyridin-3-yl)-2-(4-(1-phenyl-1H-tetrazol-5-yl)piperazin-1-yl)ethane-1,2-dione TFA]",< 500
7,"COc1cnc(-c2cc(CNCCc3ccncc3)[nH]n2)c2[nH]cc(C(=O)C(=O)N3CCN(c4nnnn4-c4ccccc4)CC3)c12 [B-27, 1-(4-methoxy-7-(5-((2-(pyridin-4-yl)ethylamino)methyl)-1H-pyrazol-3-yl)-1H-pyrrolo[2,3-c]pyridin-3-yl)-2-(4-(1-phenyl-1H-tetrazol-5-yl)piperazin-1-yl)ethane-1,2-dione TFA]",< 500
8,O=C(C(=O)N1CCN(c2nnnn2-c2ccccc2)CC1)c1c[nH]c2c(-c3cc[nH]n3)ncc(F)c12 [B-28],< 500
9,Cn1ccc(-c2ncc(F)c3c(C(=O)C(=O)N4CCN(c5nnnn5-c5ccccc5)CC4)c[nH]c23)n1 [B-29],< 500
10,CN(C)CCn1ccc(-c2ncc(F)c3c(C(=O)C(=O)N4CCN(c5nnnn5-c5ccccc5)CC4)c[nH]c23)n1 [B-30],< 500
11,O=C(C(=O)N1CCN(c2nnnn2-c2ccccc2)CC1)c1c[nH]c2c(-c3ccn(CCN4CCOCC4)n3)ncc(F)c12 [B-31],< 500
12,COc1cc[n+]([O-])c2[nH]cc(C(=O)C(=O)N3CCN(c4nnnn4-c4ccccc4)CC3)c12 [B-32],> 500
13,CCOC(=O)c1cc(-c2ncc(F)c3c(C(=O)C(=O)N4CCN(c5nnnn5-c5ccccc5)CC4)c[nH]c23)n[nH]1 [B-33],< 500
14,O=C(O)c1cc(-c2ncc(F)c3c(C(=O)C(=O)N4CCN(c5nnnn5-c5ccccc5)CC4)c[nH]c23)n[nH]1 [B-34],< 500
15,CN(C)CCN(C)C(=O)c1cc(-c2ncc(F)c3c(C(=O)C(=O)N4CCN(c5nnnn5-c5ccccc5)CC4)c[nH]c23)n[nH]1 [B-35],< 500
16,CN(CCO)C(=O)c1cc(-c2ncc(F)c3c(C(=O)C(=O)N4CCN(c5nnnn5-c5ccccc5)CC4)c[nH]c23)n[nH]1 [B-36],< 500
17,O=C(NCCO)c1cc(-c2ncc(F)c3c(C(=O)C(=O)N4CCN(c5nnnn5-c5ccccc5)CC4)c[nH]c23)n[nH]1 [B-37],< 500
18,CN(C)CCCN(C)C(=O)c1cc(-c2ncc(F)c3c(C(=O)C(=O)N4CCN(c5nnnn5-c5ccccc5)CC4)c[nH]c23)n[nH]1 [B-38],< 500
19,CN1CCN(CCCNC(=O)c2cc(-c3ncc(F)c4c(C(=O)C(=O)N5CCN(c6nnnn6-c6ccccc6)CC5)c[nH]c34)n[nH]2)CC1 [B-39],< 500

row,SMILES,EC50 [nM]
1,O=C(NCCN1CCCC1)c1cc(-c2ncc(F)c3c(C(=O)C(=O)N4CCN(c5nnnn5-c5ccccc5)CC4)c[nH]c23)n[nH]1 [B-40],< 500
2,O=C(NCCc1ccncc1)c1cc(-c2ncc(F)c3c(C(=O)C(=O)N4CCN(c5nnnn5-c5ccccc5)CC4)c[nH]c23)n[nH]1 [B-41],< 500
3,O=C(NCCN1CCOCC1)c1cc(-c2ncc(F)c3c(C(=O)C(=O)N4CCN(c5nnnn5-c5ccccc5)CC4)c[nH]c23)n[nH]1 [B-42],< 500
4,CCOC(=O)c1cc(-c2ncc(F)c3c(C(=O)C(=O)N4CCN(c5nnnn5-c5ccccc5)CC4)c[nH]c23)nn1C [B-43],< 500
5,Cn1nc(-c2ncc(F)c3c(C(=O)C(=O)N4CCN(c5nnnn5-c5ccccc5)CC4)c[nH]c23)cc1C(=O)NCCO [B-44],< 500
6,CN(C)CCCNC(=O)c1cc(-c2ncc(F)c3c(C(=O)C(=O)N4CCN(c5nnnn5-c5ccccc5)CC4)c[nH]c23)nn1C [B-45],< 500
7,N#Cc1ncc(F)c2c(C(=O)C(=O)N3CCN(c4nnnn4-c4ccccc4)CC3)c[nH]c12 [B-46],> 500
8,CC(=O)c1ncc(F)c2c(C(=O)C(=O)N3CCN(c4nnnn4-c4ccccc4)CC3)c[nH]c12 [B-47],< 500
9,CO/N=C(\C)c1ncc(F)c2c(C(=O)C(=O)N3CCN(c4nnnn4-c4ccccc4)CC3)c[nH]c12 [B-48],< 500
10,C/C(=N\O)c1ncc(F)c2c(C(=O)C(=O)N3CCN(c4nnnn4-c4ccccc4)CC3)c[nH]c12 [B-49],< 500
11,NC(=O)c1ncc(F)c2c(C(=O)C(=O)N3CCN(c4nnnn4-c4ccccc4)CC3)c[nH]c12 [B-50],< 500
12,CCOC(=O)c1cc(-c2ncc(F)c3c(C(=O)C(=O)N4CCN(c5c[nH]nc5-c5ccccc5)CC4)c[nH]c23)n[nH]1 [B-51],< 500
13,O=C(NCCO)c1cc(-c2ncc(F)c3c(C(=O)C(=O)N4CCN(c5c[nH]nc5-c5ccccc5)CC4)c[nH]c23)n[nH]1 [B-52],< 500
14,CN(C)CCCNC(=O)c1cc(-c2ncc(F)c3c(C(=O)C(=O)N4CCN(c5c[nH]nc5-c5ccccc5)CC4)c[nH]c23)n[nH]1 [B-53],< 500
15,O=C(NCCN1CCOCC1)c1cc(-c2ncc(F)c3c(C(=O)C(=O)N4CCN(c5c[nH]nc5-c5ccccc5)CC4)c[nH]c23)n[nH]1 [B-54],< 500
16,O=C(NCCO)c1ncc(F)c2c(C(=O)C(=O)N3CCN(c4nnnn4-c4ccccc4)CC3)c[nH]c12 [B-55],< 500
17,CN(C)c1cnc(C(=O)NCCO)c2[nH]cc(C(=O)C(=O)N3CCN(c4nnnn4-c4ccccc4)CC3)c12 [B-56],< 500
18,CCOC(=O)c1ncc(F)c2c(C(=O)C(=O)N3CCN(c4nnnn4-c4ccccc4)CC3)c[nH]c12 [B-57],< 500
19,COc1cnc(-c2csc(C3OCCO3)n2)c2[nH]cc(C(=O)C(=O)N3CCN(c4nnnn4-c4ccccc4)CC3)c12 [B-58],< 500

# From patent US7807676B2, “Diketo-Piperazine and Piperidine derivatives as antiviral agents” (priority 2006, dated 2010)
